Measured values taken from patent US20030113281A1, “Assay for identification of compounds that promote melanin production and retinoid-like compounds identified by said assay” (Galderma Research & Development, S.N.C., priority 1998, published 2003).

Tested on: normal human melanocytes
Experiment: Melanin content of normal human melanocytes, normalized to proliferation (MTS)
Type: cell-based
Details: 5 day treatment, normal human melanocytes from neonatal skin
Procedure: Normal human melanocytes from neonatal skin were used for the assay. For the primary screening, the cells were seeded simultaneously into 96-well plates and 24-well plates appropriately according to the surface area of the wells, and treated with the test compound for 5 days. The addition of the compound to the plates was done using a Robot to ensure accuracy (same amount in each well). At the end of 5 day treatment, the cells in the 96-well plate were treated with MTS solution and the plate was read at 490 nm to determine the effect of the compounds on the growth of the cells. The cells in the 24-well plates were rinsed with PBS, and then lysed with 1N NaOH, and the absorbence of alkali soluble melanin was measured at 405 nm.
The data from the 96-well plate was analyzed to determine the effect of each compound on the proliferation of the cells, and the data from the 24-well plate was used to determine the effect of the compound on the melanin content of the cells. The melanin content was then normalized to the proliferation of the cells.

C=C(c1ccc(C(=O)O)cc1)c1ccc2c(c1)C(C)(C)CCC2(C)C [CD No. 2771, 4-[1-(5,6.7,8-tetrahydro-5,5,8,8-tetramethyl-2-naphthyl)ethenyl]benzoic acid]
Maximum Increase in Melanin Content (Normalized) (at 2 μM): 250% at 2 μM

Cc1cc2c(cc1-c1cccc(C=CC(=O)O)c1)C(C)(C)CCC2(C)C [CD No. 2915, 3-[3-(3,5,5,8,8-pentamethyl-5.6,7.8-tetrahydro-naphthalen-2-yl)-phenyl]-acrylic acid]
Maximum Increase in Melanin Content (Normalized) (at 0.1 μM): 165% at 0.1 μM

CC(=CC(=O)O)c1cccc(-c2cc3c(cc2C)C(C)(C)CCC3(C)C)c1 [CD No. 3206, 3-[3-(3,5.5,8,8-pentamethyl-5,6,7,8-tetrahydro-naphthalen-2-yl)-phenyl]-but-2-enoic acid]
Maximum Increase in Melanin Content (Normalized) (at 0.5 μM): 198% at 0.5 μM
